# Measurements: US11919871B1, “3-(3-chlorophenyl)-5-((2-isopropyl-5- methylphenoxy)methyl)-1,2,4-oxadiazole as an anti-cancer and antimicrobial compound” (KING FAISAL UNIVERSITY, priority 2023, dated 2024)
# Columns and labels:
# [1] = test system: human prostate cancer cells (PC3); assay: Cytotoxicity by SRB assay; assay type: cell-based; settings: 0.01 μM to 100 μM for 72 h
# Excerpt: (§1) The anticancer activity of the described synthesized compounds against highly aggressive androgen-independent metastatic human prostate cancer cells (PC3) and osteosarcoma (MG-63) cells. The human prostate cancer cells (PC3) and human osteosarcoma cells (MG-63) were obtained from Nawah Scientific Inc. (Mokatam, Cairo, Egypt) and cultured in DMEM (Dulbecco's modified eagle's medium), Gibco, USA, supplemented with fetal bovine serum (FBS) at a concentration of 10% and 100 U/mL of penicillin and streptomycin (PS). The Cells were incubated at 37° C. in a humidified environment that contained 5% CO2.
# (§2) Cells were seeded in 96-well plates as aliquots of 100 μL cell suspension and incubated in a complete media for 24 h. afterward, cells were treated with 3-(3-chlorophenyl)-5-((2-isopropyl-5-methylphenoxy)methyl)-1,2,4-oxadiazole at diverse concentrations ranging from 0.01 μM to 100 μM for 72 h. Then, cells were fixed at 4° C. for one hour with 150 μL of 10% trichloroacetic acid (TCA). […] Then, 150 μL of Tris pH 10.5 (10 mM) was added, and the absorbance was measured at 540 nm using a BMG LABTECH®-FLUOstar Omega microplate reader (Ortenberg, Germany). Half maximal inhibitory concentrations (IC50) values were calculated for each experiment using GraphPad Prism 6 software. […]
# (§3) The inhibition was calculated using the following equation: Inhibition %=100−Average Viability
# [2] = test system: human osteosarcoma cells (MG-63); assay: Cytotoxicity by SRB assay; assay type: cell-based; settings: MG-63 cells, 0.01 μM to 100 μM for 72 h
# Excerpt: as §1, §2, §3
# [3] = test system: Chrysosporium keratinophilum; assay: Agar plate disc-diffusion, antifungal inhibition zone; assay type: cell-based; settings: 72 h for fungi
# Experimental: (§4) The agar plate disc-diffusion method was applied. Sterilized filter papers (6 mm in diameter) were wetted with 10 μL of a solution of 3-(3-chlorophenyl)-5-((2-isopropyl-5-methylphenoxy)methyl)-1,2,4-oxadiazole (3) to be tested, containing 10 mg/mL in DMSO, and the discs were allowed to air dry. The discs were then placed onto the surface of agar plates (nutrient agar for bacteria and Sabouraud's dextrose agar for fungi) seeded with the test organism. Each plate contained 15 mL of the agar medium, previously seeded with 0.2 mL of the broth culture of each organism pregrown for 18 hours. The plates were incubated at 37° C. for 48 h, and 72 h for fungi. The inhibition zones were measured in mm. Discs impregnated with DMSO were used as a control, and its inhibition zone was subtracted from the tested compound actual inhibition zone.
# Aspergillus flavus = assay: as above; assay type: cell-based; settings: 72 h for fungi
# Experimental: as §4, with “Sterilized filter papers (6 mm in diameter) were wetted with 10 μL of a solution of 3-(3-chlorophenyl)-5-((2-isopropyl-5-methylphenoxy)methyl)-1,2,4-oxadiazole (3) to be tested, containing 10 mg/mL in DMSO, and the discs were allowed to air dry.” left out
# Pseudomonas aeruginosa = assay: Agar plate disc-diffusion, antibacterial inhibition zone; assay type: cell-based; settings: 37° C., 48 h
# Experimental: as §4, with “Sterilized filter papers (6 mm in diameter) were wetted with 10 μL of a solution of 3-(3-chlorophenyl)-5-((2-isopropyl-5-methylphenoxy)methyl)-1,2,4-oxadiazole (3) to be tested, containing 10 mg/mL in DMSO, and the discs were allowed to air dry.” left out
# Staphylococcus aureus = assay: as above; assay type: cell-based; settings: 37° C., 48 h
# Experimental: as §4, with “Sterilized filter papers (6 mm in diameter) were wetted with 10 μL of a solution of 3-(3-chlorophenyl)-5-((2-isopropyl-5-methylphenoxy)methyl)-1,2,4-oxadiazole (3) to be tested, containing 10 mg/mL in DMSO, and the discs were allowed to air dry.” left out
# Bacillus cereus = assay: as above; assay type: cell-based; settings: 37° C., 48 h
# Experimental: as §4, with “Sterilized filter papers (6 mm in diameter) were wetted with 10 μL of a solution of 3-(3-chlorophenyl)-5-((2-isopropyl-5-methylphenoxy)methyl)-1,2,4-oxadiazole (3) to be tested, containing 10 mg/mL in DMSO, and the discs were allowed to air dry.” left out
# Escherichia coli = assay: as above; assay type: cell-based; settings: 37° C., 48 h
# Experimental: as §4, with “Sterilized filter papers (6 mm in diameter) were wetted with 10 μL of a solution of 3-(3-chlorophenyl)-5-((2-isopropyl-5-methylphenoxy)methyl)-1,2,4-oxadiazole (3) to be tested, containing 10 mg/mL in DMSO, and the discs were allowed to air dry.” left out
# different microbes = assay: Antimicrobial activity, overall statement (agar plate disc-diffusion); assay type: cell-based; settings: against different microbes (bacteria and fungi of Tables 1 and 2)
# Experimental: as §4
# [4] = A = concentration of comp. = 10,000 μL
# [5] = B = concentration of comp. = 30,000 μL
# [6] = C = concentration of comp. = 50,000 μL
SMILES,"inhibition zone [3, 4] [mm]","inhibition zone [3, 5] [mm]","inhibition zone [3, 6] [mm]",inhibition zone (Aspergillus flavus; [4]) [mm],inhibition zone (Aspergillus flavus; [5]) [mm],inhibition zone (Aspergillus flavus; [6]) [mm],inhibition zone (Pseudomonas aeruginosa; [4]) [mm],inhibition zone (Pseudomonas aeruginosa; [5]) [mm],inhibition zone (Pseudomonas aeruginosa; [6]) [mm],inhibition zone (Staphylococcus aureus; [4]) [mm],inhibition zone (Staphylococcus aureus; [5]) [mm],inhibition zone (Staphylococcus aureus; [6]) [mm],inhibition zone (Bacillus cereus; [4]) [mm],inhibition zone (Bacillus cereus; [5]) [mm],inhibition zone (Bacillus cereus; [6]) [mm],inhibition zone (Escherichia coli; [4]) [mm],inhibition zone (Escherichia coli; [5]) [mm],inhibition zone (Escherichia coli; [6]) [mm],further results
"Cc1ccc(C(C)C)c(OCc2nc(-c3cccc(Cl)c3)no2)c1 [3-(3-chlorophenyl)-5-((2-isopropyl-5-methylphenoxy)methyl)-1,2,4-oxadiazole]",–,–,–,–,–,–,–,–,–,–,–,–,–,–,–,–,–,–,antiproliferative activities [1]: excellent antiproliferative activities; antiproliferative activities [2]: excellent antiproliferative activities
"O=C(O)c1cn(C2CC2)c2cc(N3CCNCC3)c(F)cc2c1=O [Cip., ciprofloxacin, reference compound]",29,30,53,29,30,42,29,30,53,43,44,53,29,30,42,30,39,60,–
"Cc1ccc(C(C)C)c(OCc2nc(-c3cccc(Cl)c3)no2)c1 [Compound 3, 3-(3-chlorophenyl)-5-((2-isopropyl-5-methylphenoxy)methyl)-1,2,4-oxadiazole]",27,29,48,18,20,29,24,28,38,13,17,20,30,31,39,24,35,50,antimicrobial activities (different microbes): excellent antimicrobial activities; melting point: 151 to 153 °C
